Source: US8796031B2, “Microchip for platelet examination and platelet examination device using same” (Fujimori Kogyo Co., Ltd., priority 2010, dated 2014)

Test system: platelet aggregates
Assay: Platelet function test: inflow pressure of blood through collagen-coated microchip with plasma-treated channel dividing section (Test Example 3)
Assay type: ex vivo
Settings: blood collected before and after dosing of 100 mg of aspirin, hirudin 25 μg/ml anticoagulation, flow rate 27 μl/minute or 9 μl/minute
Procedure: Blood was collected from a sample before and after dosing of 100 mg of aspirin, and each obtained blood was subjected to anticoagulation treatment with hirudin (25 μg/ml). The anticoagulated blood was subjected to flow through the channel of a microchip having a plasma-treated channel dividing section. More particularly, the reservoir 109 was filled with anticoagulated blood (before and after dosing of 100 mg of aspirin), and the pump 111 was filled with mineral oil. The pump 111 was connected to the reservoir 109, and a tip of the reservoir 109 was connected to the inlet 106 of the microchip 1. By injecting mineral oil from the pump 111 at a flow rate of 27 μl/minute or 9 μl/minute into the reservoir to overlay the mineral oil on the blood, the blood in the reservoir was pushed into the microchip 1 at the same flow rate, while the inflow pressure of the mineral oil (that is, the inflow pressure of the blood) was measured with a pressure sensor which is not shown.
In the case where the microchip having a plasma-untreated channel dividing section was used, the pressure increase was insufficient and the effect of aspirin could be therefore hardly identified. […]
Thus, the plasma irradiation increased the pressure to a higher level, and the stability of platelet aggregates under high-flow-rate conditions could be analyzed more accurately.

SMILES: CC(=O)Oc1ccccc1C(=O)O [aspirin]
- effect of aspirin on platelet aggregation (inflow pressure of blood): decrease the stability of formed platelet aggregates rather than an effect to decrease the formation rate of platelet aggregates
